The values below come from patent US7166597B2, “Fused pyrazole derivatives being protein kinase inhibitors” (Glaxo Group Limited, priority 2000, dated 2007).

Each structure is given as a SMILES string. Like-named read-outs stand apart in the source and are kept apart here. A value given as a limit tells only on which side of the number the result lay.

Data set [1] has as its system serum TNFα elevation in mice treated with lipopolysaccharide (LPS). Nature of the data set: Murine LPS-Stimulated Serum TNF Inhibition. Format: in vivo. The conditions noted are these: Mus musculus, 1.5 h, dose 30 mpk, read-out: % inh. (dose): % inhibition of murine TNF production in mice following an LPS challenge. On the procedure:
Murine LPS—Stimulated Serum TNF Inhibition Protocol
The potency of compounds of the invention as inhibitors of serum TNFα elevation in mice treated with lipopolysaccharide (LPS) was determined as follows; a) for subcutaneous (s.c.) administration, test compound was dissolved in DMSO and added to a mixture of 0.9% sodium chloride solution and 30% Trappsol HPB-20 (Cyclodextrin Technology Development Inc., Gainesville, Fla. USA) for a final DMSO concentration of 1%. The dosing solution was sonicated briefly and 0.2 mL was injected subcutaneously 10 min prior to LPS injection; b) for per oral (p.o.) administration, test compounds were formulated in 0.2 mL of PBS and 0.1% Tween 80 and given orally via gavage 10 min prior to LPS administration.
C3/hen female mice were injected intraperitoneally with 200 μg/kg LPS (Escherichia coil, Serotype 0111:B4, Sigma Chemical Co, St. Louis, Mo.) in PBS and sacrificed 90 min later by CO2 asphyxiation. Blood was immediately taken from the caudal vena cava and plasma prepared and frozen at −80° C. Plasma concentrations of TNF were measured by ELISA (Genzyme Co., Cambridge Mass.).

For data set [2], the system named is TNF release from human peripheral blood mononuclear cells (PBMNC). In words: Cell Based Assay for Cytokines Production in PBMNC (TNF release after LPS). The note with it: PBMC, read-out: TNF/PBMNC (inhibition of TNF release from human PBMNC following stimulation with LPS, IC50). On the procedure: Cell Based Assay for Cytokines Production in PBMNC
Human peripheral blood mononuclear cells were isolated from heparinized blood by LSM (Organon Teknika) from volunteer donors. Purified human peripheral blood mononuclear cells were then suspended at a concentration of 2×10^6 cells/ml in RPMI 1640 medium supplemented with 10% heat-inactivated FBS and 1% antibiotics. Aliquots of 100 μl (2×10^5 cells) were added to 96-well microliter plates. Test compounds at […] dose ranges (final-DMSO concentration in culture medium was 0.1%) were then added to the cells for 10–15 minutes before the addition of lipopolysaccharide (1 ng/ml). After incubation at 37° C. in a 5% CO2 incubator for 18–20 h, cell free supernatants were collected by centrifugation at 800 g. The supernatant was then assayed for the amount of TNFα and IL-1β by using Quantikine immunoassay kits developed by R&D Systems (Minneapolis, Minn.).

Data set [3] is described as follows: Cell Based Efficacy (MTT Assay), cytotoxicity toward HFF. The note with it: human, HFF cells (human foreskin fibroblasts). As for the experimental part: Cell Based Efficacy (MTT Assay)
The potency of compounds of the invention are tested for their ability to inhibit cell proliferation and cell viability. The metabolic conversion of 3-(4,5-dimethylthiazol-2-yl)-2,5-diphenyltetrazolium bromide (MTT, Sigma #M2128) to a reduced form was a commonly used measure of cellular viability. Following was the procedure:
Cells are maintained in 75 cm^2 tissue culture flasks until ready for use. The cells are grown and plated for the assay in Dulbecco's modified Eagle's media containing 10% fetal bovine serum. For example, the following cell lines can be used: a) human foreskin fibroblasts (HFF), b) HT29 (human colon carcinoma cell line), c) MDA-MB468 (human breast carcinoma cell line), d) RKO (human colon adenocarcinoma cell line), e) SW620 (human colon carcinoma cell line), f) A549 (human lung carcinoma cell line), and g) MIA PACA (human pancreatic carcinoma cell line). Cells are maintained at 37° C. in 10% CO2, 90% humidified air. Cells are plated in 96-well tissue culture plates at the densities listed below (Table 6). 100 μL of cell suspension was added to each well of the 96-well plate except the top row of the plate which contains no cells and serves as a reference for the spectrophotometer.
Cells are incubated overnight in Dulbecco's modified Eagle's media containing 10% fetal bovine serum at 37° C. in 10% CO2, 90% humidified air prior to dosing. Cells are dosed in 10 sequential 3-fold dilutions starting at 30 μM depending upon the solubility of the compound. Compounds with solubilities of less than 30 μM are dosed at the highest soluble concentration. Stock solutions of compounds are made in 100% dimethyl sulfoxide (DMSO). Stock solutions are diluted in Dulbecco's modified Eagle's media containing 100 ug/mL gentamicin and 0.3 to 0.6% DMSO at the twice the highest concentration to be placed on the cells. If compounds have been dissolved in DMSO the final concentration of DMSO on the cells was kept below 0.3%. 3-fold serial dilutions are performed on each compound to prepare 10 concentrations of the compound for dosing. 100 μL of diluted compound was added to the 100 μL of media currently on the dish. For each concentration of compound, 2–4 replicate wells are prepared.
Cells are returned to incubator and allowed to proliferate in the presence of compound for 72 h before addition of MTT. MTT was prepared in phosphate buffered saline (Irvine Scientific #9240) at a concentration of 2 mg/mL. 50 μL per well of MTT solution was added to the 200 μL of media to yield a final concentration of 0.4 mg/mL and plates are returned to the incubator for 4 h. After 4 h incubation the media, compound and MTT mixture was aspirated from the plates and 100 μL of 100% DMSO was added to each well in addition to 25 uL of Sorenson's Buffer (0.1M glycine, 0.1M NaCl, pH 10.5). Quantitation of metabolic reduction of MTT in each plate was performed by reading optical density at 570 nm wavelength on a Molecular Devices UV max microplate reader. Growth inhibition curves and 50% inhibitory concentrations are determined using Microsoft Excel.

The target of the next data set is T1, p38 kinase (Homo sapiens, UniProt Q16539).
T1 construct: GST (N); made in house; host or cells: E. coli
Nature of the data set: p38 Kinase Assay. Format: biochemical.

Where [4] appears, read: Table 7, compounds wherein Z is CH, read-out: P38 kinase (inhibition of p38 kinase, IC50).

T1 sequence (Q16539 whole entry): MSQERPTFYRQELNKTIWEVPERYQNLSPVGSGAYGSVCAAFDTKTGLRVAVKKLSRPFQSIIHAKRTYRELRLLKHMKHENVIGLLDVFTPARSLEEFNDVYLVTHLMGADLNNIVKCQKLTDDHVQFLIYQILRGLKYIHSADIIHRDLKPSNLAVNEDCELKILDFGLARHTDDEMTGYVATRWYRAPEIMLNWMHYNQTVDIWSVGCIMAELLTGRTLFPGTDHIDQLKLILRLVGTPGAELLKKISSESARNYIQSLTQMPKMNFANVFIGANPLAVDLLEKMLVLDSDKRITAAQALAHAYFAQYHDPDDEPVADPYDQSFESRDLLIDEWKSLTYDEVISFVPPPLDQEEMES

On to `Fc1ccc(-c2nn3ccccc3c2-c2ccncc2)cc1` [Example 1, 2-(4-Fluorophenyl)-3-(4-pyridyl)-pyrazolo[1,5-a]pyridine], for which the inhibition in vivo at 30 mg/kg in data set [1] (Table 7, LPS challenge) turned out to be 65%. Further, the IC50 is less than 500 nM in data set [2] (Table 7, LPS stimulation) and less than 500 nM at p38 kinase (setting [4]). Further, the IC50 at 72 h in data set [3] (Table 7, HFF cell line) was more than 50000 nM.

With `Nc1ncccc1C(=O)OCc1ccn2nc(-c3ccc(F)cc3)c(-c3ccncc3)c2c1` [Example 16, [2-(4-Fluorophenyl)-3-(4-pyridinyl)pyrazolo[1,5-a]pyridin-5-yl]methyl 2-aminonicotinate], the IC50 was less than 500 nM in data set [2] (Table 7, LPS stimulation) and less than 500 nM on p38 kinase (setting [4]). Also, the IC50 at 72 h in data set [3] (Table 7, HFF cell line) was more than 50000 nM.

For `OCCCNc1cc(-c2c(-c3ccc(F)cc3)nn3ccccc23)ccn1` [Example 30, 3-(4-[2-(4-Fluorophenyl)pyrazolo[1,5-a]pyridin-3-yl]-2-pyridinylamino)-1-propanol], the inhibition in vivo at 30 mg/kg in data set [1] (Table 7, LPS challenge) amounted to 45%. Further, the IC50 is less than 500 nM in data set [2] (Table 7, LPS stimulation) and less than 500 nM on p38 kinase (setting [4]). In data set [3] (Table 7, HFF cell line), the IC50 at 72 h is more than 50000 nM.

On to `Fc1ccc(-c2nn3ccccc3c2-c2ccnc(NCc3cccnc3)c2)cc1` [Example 37, 4-[2-(4-Fluorophenyl)pyrazolo[1,5-a]pyridin-3-yl]-N-(3-pyridinylmethyl)-2-pyridinamine], for which the IC50 in data set [2] (Table 7, LPS stimulation) was less than 500 nM; on p38 kinase (setting [4]), less than 500 nM. Besides, in data set [3] (Table 7, HFF cell line), the IC50 at 72 h lay within 5000 to 50000 nM.

For `Fc1ccc(-c2nn3ccccc3c2-c2ccncn2)cc1` [Example 56, 2-(4-Fluorophenyl)-3-(4-pyrimidinyl)-pyrazolo[1,5-a]pyridine], in data set [1] (Table 8, LPS challenge), the inhibition in vivo at 30 mg/kg worked out at 67%. The IC50 in data set [2] (Table 8, LPS stimulation) was 500 to 5000 nM; on p38 kinase (Table 8, compounds wherein Z is N, read-out: p38 kinase (inhibition of p38 kinase, IC50)) it was 500 to 5000 nM. Moreover, in data set [3] (Table 8, HFF cell line), the IC50 at 72 h is more than 50000 nM.
